A short description of the series: Comparative bioavailability of Trial 2 of Example 4 and ACTOS tablets 45 mg, open label randomized cross-over single dose study, fasting, 55 subjects. The series is classed as in vivo. To be noted: human, plasma, oral, calculated from Table 6 results, single dose to humans. As for the experimental part:
In determining bioequivalence, for example, between two products such as a commercially available product and a proposed product, pharmacokinetic studies are conducted whereby each of the preparations is administered in a crossover study to volunteer subjects. Serum plasma samples are obtained at regular intervals and assayed for parent drug (or occasionally metabolite) concentrations. For a pharmacokinetic comparison, the plasma concentration data are used to assess key pharmacokinetic parameters such as area under the plasma concentration-time curve (AUC), peak concentration (Cmax) and time to peak plasma concentration (Tmax).
R represents reference product, i.e., ACTOS tablets 45 mg.
Study design: Open label randomized cross-over single dose study under fasting conditions.

The term Cmax denotes the maximum level reached in the sampled fluid or tissue.

The structures appear in SMILES notation. Where two headings read alike, the source gives them in different places.

Turning to `CCc1ccc(CCOc2ccc(CC3SC(=O)NC3=O)cc2)nc1` (racemic) [Pioglitazone, (±)-5-[[4-[2-(5-ethyl-2-pyridinyl)ethoxy]phenyl]methyl]-2,4-]thiazolidinedione], the AUC(0-inf) by setting is: (read-out: therapeutically equivalent range of plasma pioglitazone AUC0-∞) 12300 to 19100 ng·h/mL; (read-out: therapeutically equivalent range of plasma pioglitazone AUC0-∞T) 11900 to 18500 ng·h/mL. In addition, the peak concentration (Cmax) (read-out: therapeutically equivalent range of plasma pioglitazone Cmax) was 1030 to 1610 ng/mL.
